Reference: article PMC6694829, “Identification of Immunodominant HIV-1 Epitopes Presented by HLA-C*12:02, a Protective Allele, Using an Immunopeptidomics Approach” (Journal of Virology, 2019)

Legend:
[1] = system: CD8+ T cells; assay: intracellular cytokine staining (ICS) assay with peptide-expanded bulk T cells; assay type: cell-based, human; settings: peptide-expanded bulk T cells from responder KI-1407 (Env-RL9) or KI-1394 (Vif-DY9); IFN-γ ICS; words
Experimental: PBMCs from HIV-1-infected individuals were expanded by culture with each HIV-1 peptide for 2 weeks. .221-C1202 cells prepulsed with each HIV-1 peptide or .221-C1202 cells infected with HIV-1 NL4-3 were added to a 96-well plate together with bulk-cultured T cells, and the cells were incubated for 4 h at 37°C with brefeldin A (10 μg/ml). The cells were then stained with peridinin chlorophyll protein (PerCP)-labeled anti-CD3 mAb (BioLegend), phycoerythrin (PE)-labeled anti-CD4 mAb (BioLegend), and allophycocyanin (APC)-labeled anti-CD8 mAb (Dako) and subsequently fixed with 4% paraformaldehyde and incubated in permeabilization buffer (0.1% saponin–10% FBS–PBS). Thereafter, the cells were stained with FITC-labeled anti-IFN-γ mAb (BioLegend). Staining data were acquired on a FACSCanto II instrument (BD Biosciences) and analyzed using FlowJo 10.5.3 software.

[2] = system: PBMCs from HIV-1-infected HLA-C*12:02+ individuals; assay: ex vivo IFN-γ ELISpot assay; assay type: cell-based, human; settings: for number of individuals with T cell response to the peptide: of 20 chronically HIV-1-infected HLA-C*12:02+ Japanese individuals, peptide 1 μM, positive >100 spots/10^6 PBMCs; for average magnitude of the T cell responses in individuals recognizing the epitope: ex vivo ELISpot, 20 HLA-C*12:02+ individuals screened, responders only
Experimental: Peripheral blood mononuclear cells (PBMCs) were separated from whole blood and stored at −80°C. ELISpot assays were performed as previously described ([52]). […] The plates were then incubated for 16 h at 37°C and subsequently washed with PBS before the addition of biotinylated anti-IFN-γ mAb (Mabtech) at 1 μg/ml. After the plates had been incubated at room temperature for 90 min, they were washed with PBS and then incubated with streptavidin-conjugated alkaline phosphatase (Mabtech) for 60 min at room temperature. Following washes with PBS, individual cytokine-producing cells were visualized as dark spots after a 20-min reaction with 5-bromo-4-chloro-3-indolyl phosphate and nitroblue tetrazolium in the presence of an alkaline phosphatase-conjugated substrate (Bio-Rad). The spots were counted with an Eliphoto-Counter (Minerva Teck). The number of spots was calculated per 10^6 PBMCs. One hundred spots per 10^6 PBMCs were defined as a positive response, as described previously ([52]).

[3] = target: HLA-C*12:02 heavy chain and β2-microglobulin (Homo sapiens, UniProt P10321, A176E/A330V/C350S/D114A/D33Y/L171W/L180W/L218V/M285V/M309V/M331V/P208H/Q277E/Q291P/S123Y/S297R/S48A/T329A/T363A/V319A/V328M); assay: peptide/HLA refolding assay analyzed by FPLC; assay type: binding; settings: for refolded peptide/HLA-C*12:02/β2m complex FPLC peak Height: heavy chain 20 μM, β2m 2 μM, peptide 85 μM, 48 h at 4°C, Superdex 75, Fig. 2d; for refolding with HLA-C*12:02 heavy chain and β2m: low-temperature refolding, FPLC, result in words
Experimental: Refolding of peptides with the HLA heavy chain and β2m was performed as previously described ([74]). Briefly, HLA-C*12:02 heavy chain and β2m were overexpressed in Escherichia coli as inclusion bodies and solubilized with 8 M urea. Before refolding, only β2m was refolded and purified with Superdex 75 pg 26/600 (GE Healthcare) chromatography, and the solubilized HLA heavy chain was treated with 6 M guanidine hydrochloride at 4°C overnight. The dissolved HLA heavy chain, purified monomer β2m, and peptide (final concentrations of 20 μM, 2 μM, and 85 μM, respectively) were diluted in 10 ml of refolding buffer (100 mM Tris-HCl [pH 8.0], 400 mM L-arginine, 2 mM EDTA-Na, 5 mM reduced L-glutathione, and 0.5 mM oxidized L-glutathione). After 48 h of slow stirring at 4°C, the peptide–HLA-C complex was then concentrated and purified by Superdex 75 pg 26/600 (GE Healthcare) chromatography.

[4] = target: HLA-C*12:02 (Homo sapiens, UniProt P10321, A176E/A330V/C350S/D114A/D33Y/L171W/L180W/L218V/M285V/M309V/M331V/P208H/Q277E/Q291P/S123Y/S297R/S48A/T329A/T363A/V319A/V328M); assay: HLA class I stabilization assay using RMA-S-C1202 cells; assay type: cell-based; settings: for binding to HLA-C*12:02 at higher peptide concentration / binding to HLA-C*12:02 (stabilization of surface HLA expression, expression index): RMA-S-C1202 cells, result in words; for binding to HLA-C*12:02 at higher peptide concentration: peptide 100 to 300 μM; for binding to HLA-C*12:02 (stabilization of surface HLA expression, expression index): peptide 0.1 to 100 μM, pulsed 26°C 1 h then 37°C 3 h, DT-9 staining, flow cytometry; for affinities of binding to HLA-C*12:02, Nef-MY9 compared with Nef-MY10: data not shown, words
Experimental: The affinity of peptide binding to HLA-C*12:02 was examined using RMA-S-C1202 cells as previously described ([67]). Briefly, RMA-S-C1202 cells were cultured at 26°C for 16 h and then pulsed with peptides at 26°C for 1 h and subsequently incubated at 37°C for 3 h. Staining of cell surface HLA-C molecules was performed with DT-9, an HLA-C-specific monoclonal antibody (mAb) (a gift from Mary Carrington, NIH), and fluorescein isothiocyanate (FITC)-conjugated sheep anti-mouse IgG (Jackson ImmunoResearch). Staining data were acquired on a FACSCanto II instrument (BD Biosciences) and analyzed using FlowJo 10.5.3 software. Relative HLA expression was calculated as the ratio of the mean fluorescence intensity (MFI) of peptide-pulsed RMA-S-C1202 cells to that of control (non-peptide-pulsed) cells kept at 26°C.

[5] = system: CD8+ T cells; settings: comparison Nef-MY9 vs Nef-MY10; previous study; cited from earlier work
From the text: In addition to Nef-VY9, which was previously reported as immunodominant HLA-C*12:02-restricted epitope MY9 ([52], [53]), the C-terminally extended Nef-VF10 peptide (VARELHPEYF) was also among the HIV-1 peptides identified here. […] (Nef-MY9) much more efficiently than […]Y (Nef-MY10) ([52]), despite the fact that the affinities of ...

Sequence | HLA restriction of T cell response: recognition of peptide-prepulsed 721.221 cells expressing single HLA alleles [1] | number of individuals with T cell response to the peptide [2] | refolded peptide/HLA-C*12:02/β2m complex FPLC peak Height [3] [mAU] | refolding with HLA-C*12:02 heavy chain and β2m [3] | binding to HLA-C*12:02 at higher peptide concentration [4] | average magnitude of the T cell responses in individuals recognizing the epitope [2] [SFC/10^6 PBMCs] | binding to HLA-C*12:02 (stabilization of surface HLA expression, expression index) [4] | recognition by PBMCs expanded in vitro with a peptide cocktail including MARELHPEYY [5] | affinities of binding to HLA-C*12:02, Nef-MY9 compared with Nef-MY10 [4]
DAKLVITTY [Vif-DY9, HIV-1 Vif 61–69 peptide …] | higher-magnitude response to Vif-DY9-pulsed HLA-B*35:01-expressing cells than to Vif-DY9-pulsed HLA-C*12:02-expressing cells | 1 |  |  |  |  |  |  | 
FLGKIWPSH [Gag-FH9, HIV-1 Gag 433–441 peptide …] |  |  | 2.27 | shown to refold with HLA-C*12:02 heavy chain and β2m molecules | did not exhibit detectable binding |  |  |  | 
ILKEPVHGVYY [Pol-IY11, HIV-1 Pol 464–474 peptide […]] |  | 5/20 | 4.88 | shown to refold with HLA-C*12:02 heavy chain and β2m molecules |  | 130 | exhibited affinity for HLA-C*12:02 molecules |  | 
KGALDLSHF [Nef-KF9, HIV-1 Nef 82–90 peptide; synthesized as …] |  |  | 4.48 | shown to refold with HLA-C*12:02 heavy chain and β2m molecules | did not exhibit detectable binding |  |  |  | 
LGKIWPSH [Gag-LH8, HIV-1 Gag 434–441 peptide LGKIWPSH] |  |  | 6.41 | shown to refold with HLA-C*12:02 heavy chain and β2m molecules | did not exhibit detectable binding |  |  |  | 
MARELHPEY [Nef-MY9, reference compound] |  | 5/20 |  | complex of HLA-C*12:02, peptide, and β2m was generated |  | 167 | exhibited affinity for HLA-C*12:02 molecules | much more efficiently than […] (Nef-MY10) | similar
MARELHPEYY [Nef-MY10, […], consensus version of Nef-VF10, reference compound] |  |  |  |  |  |  |  |  | similar
MSQVTNSATIM [Gag-MM11, HIV-1 Gag 367–377 peptide eluted from HLA-C*12:02; tested as clade B consensus […]] |  |  | 3.51 | shown to refold with HLA-C*12:02 heavy chain and β2m molecules | did not exhibit detectable binding |  |  |  | 
